For assay [1], the target named is T1, sGC α1/β1 heterodimer (Homo sapiens, UniProt Q02108+Q02153).
T1 construct: expressed in transfected cells; host or cells: CHO-K1 (clone #7, CHO-K1/sGC)
T1 sequence (Q02108 1-690): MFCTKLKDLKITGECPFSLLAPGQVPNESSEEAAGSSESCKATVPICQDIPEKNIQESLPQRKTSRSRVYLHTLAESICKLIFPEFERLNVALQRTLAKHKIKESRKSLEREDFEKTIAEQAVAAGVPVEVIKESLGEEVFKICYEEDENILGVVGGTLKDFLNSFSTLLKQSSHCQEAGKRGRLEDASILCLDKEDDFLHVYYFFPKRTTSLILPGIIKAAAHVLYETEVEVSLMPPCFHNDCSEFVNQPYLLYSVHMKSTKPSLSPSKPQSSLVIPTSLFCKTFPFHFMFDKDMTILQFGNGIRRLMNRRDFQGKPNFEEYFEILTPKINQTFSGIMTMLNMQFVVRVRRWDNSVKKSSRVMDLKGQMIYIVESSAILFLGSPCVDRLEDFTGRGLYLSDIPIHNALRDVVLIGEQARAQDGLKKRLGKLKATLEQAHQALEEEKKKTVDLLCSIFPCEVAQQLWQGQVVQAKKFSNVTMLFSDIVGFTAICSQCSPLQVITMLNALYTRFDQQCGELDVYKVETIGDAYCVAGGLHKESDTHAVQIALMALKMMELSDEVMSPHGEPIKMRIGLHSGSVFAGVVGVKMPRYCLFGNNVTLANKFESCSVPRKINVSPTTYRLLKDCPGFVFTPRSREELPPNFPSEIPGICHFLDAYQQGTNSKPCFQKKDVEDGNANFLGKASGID
T1 sequence (Q02153 1-619): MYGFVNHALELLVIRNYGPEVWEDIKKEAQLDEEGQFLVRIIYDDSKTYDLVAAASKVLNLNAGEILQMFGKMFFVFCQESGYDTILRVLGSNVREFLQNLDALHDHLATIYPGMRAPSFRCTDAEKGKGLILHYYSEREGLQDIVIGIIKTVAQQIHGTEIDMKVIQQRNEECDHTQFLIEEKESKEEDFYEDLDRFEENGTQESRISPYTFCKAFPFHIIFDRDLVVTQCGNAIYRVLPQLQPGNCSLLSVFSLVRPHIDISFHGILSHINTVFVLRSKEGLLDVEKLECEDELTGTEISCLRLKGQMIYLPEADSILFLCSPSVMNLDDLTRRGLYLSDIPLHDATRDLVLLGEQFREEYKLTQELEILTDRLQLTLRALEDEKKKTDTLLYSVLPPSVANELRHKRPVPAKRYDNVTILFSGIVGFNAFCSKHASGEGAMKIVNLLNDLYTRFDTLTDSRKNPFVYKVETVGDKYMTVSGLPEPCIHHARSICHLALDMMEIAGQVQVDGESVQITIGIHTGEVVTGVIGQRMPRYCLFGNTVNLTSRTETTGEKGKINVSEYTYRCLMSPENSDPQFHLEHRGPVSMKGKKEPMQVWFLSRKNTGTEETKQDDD
Nature of the assay: Cell-Based sGC Functional Assay (CASA Assay), cGMP by HTRF in CHO-K1/sGC cells. To be noted: for Emax: CHO-K1, percent activation relative to maximum cGMP production of Compound A (= 100%), read-out: % Act.; for EC50: cGMP production, 1 hr at 37° C., 4P fit, presence or absence of 1 μM DETA-NO not given, read-out: IP (nM) (inflection point). The method, boiled down: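 CHO-K1 cells stably expressing human sGC α1/β1, in EBSS buffer with 5 mM MgCl2, 10 mM HEPES, 0.05% BSA and 0.5 mM IBMX, incubated with compound (2.5% DMSO) ± 1 μM DETA-NO, 1 h, 37 °C. Intracellular cGMP read by HTRF; activity as % of reference activator maximum, IP from 4-parameter fit.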
On the technique in general: TR-FRET usually uses a lanthanide donor and a delayed reading to cut background.

In assay [2] the test system is Spontaneously hypertensive rats (SHR). In words: Acute Efficacy in Spontaneously Hypertensive Rats (SHR), telemetry blood pressure. The class given is in vivo, rat. To be noted: SHR male. The method in brief:
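Male SHR with aortic telemetry, conscious and freely moving, recovered 14 days post-surgery. Single oral gavage; vehicle 10% transcutol/20% Cremophor/70% water dosed the day before as baseline. Hourly blood pressure averages minus baseline; maximum peak systolic decrease reported at a stated oral dose (mpk).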

In the case of `CC1(c2ccc(Cl)cn2)C(=O)Nc2nc(-c3cn4ccnc4c(CCC(F)(F)C(F)(F)F)n3)nc(O)c21` (stereo not drawn) [Example 17A, 5-(5-chloropyridin-2-yl)-4-hydroxy-5-methyl-2-(8-(3,3,4,4,4-pentafluorobutyl)imidazo[1,2-a]pyrazin-6-yl)-5H-pyrrolo[2,3-d]pyrimidin-6(7H)-one], in assay [1], the Emax turned out to be 90% and the EC50 is 294 nM. In addition, in assay [2] (single oral dose 1.0 mpk P.O.), the “Cat. (maximum peak decrease of systolic blood pressure (SBP) in SHR)” value is listed as “A (Category A=SBP in SHRs<20 mmHg)”.

`CCCCc1nc(-c2ncc3c(n2)NC(=O)C3(C)c2ccc(F)cn2)cn2ccnc12` (stereo not drawn) [Example 82B, 2-(8-butylimidazo[1,2-a]pyrazin-6-yl)-5-(5-fluoropyridin-2-yl)-5-methyl-5H-pyrrolo[2,3-d]pyrimidin-6(7H)-one]: in assay [1], the Emax was determined as 63% and the EC50 worked out at 37 nM. Also, the “Cat. (maximum peak decrease of systolic blood pressure (SBP) in SHR)” value in assay [2] (single oral dose 1.0 mpk P.O.) is “C (Category C=SBP in SHRs>40 mmHg)”.

On to `O=C1Nc2nc(-c3cn4ccnc4c(CCCC(F)(F)F)n3)nc(O)c2C1(c1ccc(Cl)cc1F)C1CC1` (stereo not drawn) [Example 34A, 5-(4-chloro-2-fluorophenyl)-5-cyclopropyl-4-hydroxy-2-(8-(4,4,4-trifluorobutyl)imidazo[1,2-a]pyrazin-6-yl)-5H-pyrrolo[2,3-d]pyrimidin-6(7H)-one], for which, in assay [1], the Emax was 124% and the EC50 turned out to be 102 nM. Also, the “Cat. (maximum peak decrease of systolic blood pressure (SBP) in SHR)” value in assay [2] (single oral dose 3.0 mpk P.O.) was “B (Category B=SBP in SHRs 20-40 mmHg)”.

For the molecule `CCCc1nc(-c2ncc3c(n2)NC(=O)C3(C)c2ccc(Cl)cc2)cn2ccnc12` (stereo not drawn) [Example 39A, 5-(4-chlorophenyl)-5-methyl-2-(8-propylimidazo[1,2-a]pyrazin-6-yl)-5H-pyrrolo[2,3-d]pyrimidin-6(7H)-one], in assay [1], the Emax is 101% and the EC50 is 92 nM. For the same molecule, the “Cat. (maximum peak decrease of systolic blood pressure (SBP) in SHR)” value in assay [2] (single oral dose 1.0 mpk P.O.) is listed as “A (Category A=SBP in SHRs<20 mmHg)”.

Turning to `CC1(c2ccc(Cl)cc2)C(=O)Nc2nc(-c3cn4ccnc4c(CCCC(F)(F)F)n3)nc(O)c21` (stereo not drawn) [Example 26A, 5-(4-chlorophenyl)-4-hydroxy-5-methyl-2-(8-(4,4,4-trifluorobutyl)imidazo[1,2-a]pyrazin-6-yl)-5H-pyrrolo[2,3-d]pyrimidin-6(7H)-one], in assay [1], the Emax stood at 90% and the EC50 worked out at 200 nM. In assay [2] (single oral dose 3.0 mpk P.O.), the “Cat. (maximum peak decrease of systolic blood pressure (SBP) in SHR)” value is given as “C (Category C=SBP in SHRs>40 mmHg)”.

In the case of `CC1(c2ccc(Cl)c(F)c2)C(=O)Nc2nc(-c3cn4ccnc4c(CCC(F)(F)F)n3)ncc21` (stereo not drawn) [Example 56B, 5-(4-chloro-3-fluorophenyl)-5-methyl-2-(8-(3,3,3-trifluoropropyl)imidazo[1,2-a]pyrazin-6-yl)-5H-pyrrolo[2,3-d]pyrimidin-6(7H)-one], in assay [1], the Emax came to 95% and the EC50 was 70 nM. In addition, in assay [2] (single oral dose 1.0 mpk P.O.), the “Cat. (maximum peak decrease of systolic blood pressure (SBP) in SHR)” value was “A (Category A=SBP in SHRs<20 mmHg)”.

With `CC1(c2ccc(F)cc2)C(=O)Nc2nc(-c3cn4ccnc4c(CCC(F)(F)C(F)(F)F)n3)nc(C(N)=O)c21` (stereo not drawn) [Example 86A, 5-(4-Fluorophenyl)-5-methyl-6-oxo-2-(8-(3,3,4,4,4-pentafluorobutyl)imidazo[1,2-a]pyrazin-6-yl)-6,7-dihydro-5H-pyrrolo[2,3-d]pyrimidine-4-carboxamide], in assay [1], the Emax turned out to be 109% and the EC50 came out at 57 nM. The “Cat. (maximum peak decrease of systolic blood pressure (SBP) in SHR)” value in assay [2] (single oral dose 1.0 mpk P.O.) is listed as “B (Category B=SBP in SHRs 20-40 mmHg)”.

Take `O=C1Nc2nc(-c3cn4ccnc4c(CCC(F)(F)C(F)(F)F)n3)nc(O)c2C1(c1ccc(F)cc1)C1CC1` (stereo not drawn) [Example 12B, 5-cyclopropyl-5-(4-fluorophenyl)-4-hydroxy-2-(8-(3,3,4,4,4-pentafluorobutyl)imidazo[1,2-a]pyrazin-6-yl)-5H-pyrrolo[2,3-d]pyrimidin-6(7H)-one]: in assay [1], the Emax came out at 92% and the EC50 was determined as 525 nM. In assay [2] (single oral dose 3.0 mpk P.O.), the “Cat. (maximum peak decrease of systolic blood pressure (SBP) in SHR)” value is recorded as “A (Category A=SBP in SHRs<20 mmHg)”.

In the case of `CC1(c2ccc(Cl)cc2)C(=O)Nc2nc(-c3cn4ccnc4c(CCC(F)(F)C(F)(F)F)n3)ncc21` (stereo not drawn) [Example 3A, 5-(4-chlorophenyl)-5-methyl-2-(8-(3,3,4,4,4-pentafluorobutyl)imidazo[1,2-a]pyrazin-6-yl)-5H-pyrrolo[2,3-d]pyrimidin-6(7H)-one], in assay [1], the Emax stood at 118% and the EC50 came to 34 nM. The “Cat. (maximum peak decrease of systolic blood pressure (SBP) in SHR)” value in assay [2] (single oral dose 1.0 mpk P.O.) is recorded as “B (Category B=SBP in SHRs 20-40 mmHg)”.

For `CC1(c2ccc(F)cn2)C(=O)Nc2nc(-c3cn4ccnc4c(CCC(F)(F)C(F)(F)F)n3)nc(O)c21` (single isomer, unassigned) [Example 18B, 5-(5-fluoropyridin-2-yl)-4-hydroxy-5-methyl-2-(8-(3,3,4,4,4-pentafluorobutyl)imidazo[1,2-a]pyrazin-6-yl)-5H-pyrrolo[2,3-d]pyrimidin-6(7H)-one], in assay [1], the Emax worked out at 78% and the EC50 stood at 365 nM. Further, the “Cat. (maximum peak decrease of systolic blood pressure (SBP) in SHR)” value in assay [2] (single oral dose 3.0 mpk P.O.) is given as “A (Category A=SBP in SHRs<20 mmHg)”.

On to `CC1(c2ccc(F)cn2)C(=O)Nc2nc(-c3cn4ccnc4c(CCCC(F)(F)F)n3)nc(O)c21` (stereo not drawn) [Example 32B, 5-(5-fluoropyridin-2-yl)-4-hydroxy-5-methyl-2-(8-(4,4,4-trifluorobutyl)imidazo[1,2-a]pyrazin-6-yl)-5H-pyrrolo[2,3-d]pyrimidin-6(7H)-one], for which, in assay [1], the Emax is 115% and the EC50 was determined as 880 nM. The “Cat. (maximum peak decrease of systolic blood pressure (SBP) in SHR)” value in assay [2] (single oral dose 1.0 mpk P.O.) is “B (Category B=SBP in SHRs 20-40 mmHg)”.

Consider `CC1(c2ccc(F)cc2)C(=O)Nc2nc(-c3cn4ccnc4c(CC4CCC4)n3)nc(O)c21` (stereo not drawn) [Example 29A, 2-(8-(cyclobutylmethyl)imidazo [1,2-a]pyrazin-6-yl)-5-(4-fluorophenyl)-4-hydroxy-5-methyl-5H-pyrrolo[2,3-d]pyrimidin-6(7H)-one], for which, in assay [1], the Emax came out at 92% and the EC50 was determined as 225 nM. Moreover, in assay [2] (single oral dose 3.0 mpk P.O.), the “Cat. (maximum peak decrease of systolic blood pressure (SBP) in SHR)” value is “B (Category B=SBP in SHRs 20-40 mmHg)”.
